Assay results published in patent US20050266512A1, “Detection of proteases and screening for protease inhibitors” (priority 2000, published 2005).

System: horse erythrocytes
Assay: Hemolytic plate assay (erythrocyte lysis, decrease in absorbance)
Format: cell-based
Details: FIG. 1
Method: The HIV-1 proaerolysin variant generated in EXAMPLE 3 was incubated with varying concentrations of an HIV protease-containing sample in a microtiter plate (HIV-1 protease obtained from BACHEM, Torrance, Calif.). The HIV-1 proaerolysin variant (1.5×10^−6 M) was diluted 1:16 in PBS to a final volume of 100 μl and added to the first column of wells of a 96 well plate. Various concentrations of HIV-protease containing samples, ranging from 10 to 500 ng of HIV-1 protease in a final volume of 100 μl, were added to each of the 8 wells of the first column of the microtiter plate, and the plate incubated for four hours.
After incubation, the samples were serially diluted 1:2 by adding 100 μl of PBS to the first column of wells, mixing and transferring 100 μl sequentially to each of the wells in every row. Then, 100 μl of washed horse erythrocytes were added to all wells so that the final erythrocyte concentration was 0.4%. […]

Row | Substance | absorbance (erythrocyte lysis) (HIV variant of proaerolysin activated with HIV protease, absorbance at 600 nm, listed as HIV variant of proaerolysin) | absorbance (erythrocyte lysis) (HIV variant of proaerolysin activated with HIV protease, absorbance at 600 nm, listed as proaerolysin variant) | absorbance (erythrocyte lysis) (native proaerolysin activated with trypsin)
1 | HIV-1 proaerolysin variant: proaerolysin variant in which the normal activation sequence KVRRAR was replaced with the HIV-1 protease sensitive sequence QNYPIV | decrease in absorbance | lysis of the erythrocytes | –
2 | native proaerolysin: precursor form of the aerolysin toxin, a 52 kDa protein produced by bacteria in the genus Aeromonas | – | – | decrease in absorbance
